Measured values taken from US12480163B2, “Compositions and methods for identification assessment, prevention, and treatment of Ewing sarcoma using TP53 dependency biomarkers and modulators” (Dana-Farber Cancer Institute, Inc., priority 2018, dated 2025).
“Also recorded” adds a separate entry of the source.

Legend:
TP53 knockout cells = assay: CellTiter-Glo cell viability assay, TP53 knockout cells; assay type: cell-based
Experimental: Lentivirus was produced by transfecting HEK-293T cells with the pLentiV2 vector (Addgene plasmid 52961) and the packaging plasmids pCMV8.9 and pCMV-VSVG according to the FuGENER 6 (Roche) protocol. For lentiviral transduction, Ewing sarcoma cells were incubated with 2 ml of virus and 8 μg/ml of polybrene (Sigma-Aldrich). Cells were selected in puromycin (Sigma-Aldrich) 48 h after infection for single knockout experiments. For dual knockout experiments, PPM1D, USP7, and MDM4 sgRNA sequences were cloned into a LentiV2 vector with a blasticidin selection marker (Addgene plasmid 83480).
d. sgRNA Sequences sgRNAs were designed using the Broad Institute's sgRNA designer tool. The following sequences were used as control or to target the respective genes: control sgRNA, 5′-[…]-3′ (SEQ ID NO: 125); sgMDM2 2: 5′-[…]-3′ (SEQ ID NO: 126); sgMDM2 5: 5′-[…]-3′ (SEQ ID NO: 127); sgMDM4 4: 5′-[…]-3′ (SEQ ID NO: 128); sgMDM4 6: 5′-[…]-3′ (SEQ ID NO: 129); sgUSP7 1: 5′-[…]-3′ (SEQ ID NO: 130); sgUSP7 2: 5′-ACCATACCCAAATTATTC CG-3′ (SEQ ID NO: 131); sgPPMID 1: 5′-[…]-3′ (SEQ ID NO: 132); sgPPMID 2: 5′-[…]-3′ (SEQ ID NO: 133); sgTP53 1: 5′-[…]-3′ (SEQ ID NO: 134); sgTP53 2: 5′-[…]-3′ (SEQ ID NO: 135); sgTP53 4: 5′-[…]-3′ (SEQ ID NO: 136); and sgTP53 5: 5′-[…]-3′ (SEQ ID NO: 137). e. Protein Extraction and Immunoblotting
Cell viability was assessed using the CellTiter-Glo® Luminescent Cell Viability Assay (Promega). Viability assays were performed after Ewing sarcoma cell lines were infected with sgRNAs targeting TP53, MDM2, MDM4, PPM1D, or USP7 or treated with ATSP-7041, ATSP-7342, GSK2830371, P5091, XL-188, or vehicle control.

[1] = test system: TC32 xenograft tumor tissues; assay: Pharmacodynamics study in TC32 xenograft tumor tissue (Western blot, quantitative PCR); assay type: in vivo, mice; conditions: three doses 30 mg/kg IV q.o.d., 8 h after last dose
Experimental: (§1) Whole-cell lysates were extracted in cell lysis buffer (Cell Signaling) supplemented with EDTA-free protease inhibitors and PhosSTOP™ phosphatase inhibitors (Roche). Western immunoblotting was performed using standard techniques. Primary antibodies used included anti-MDM2 (ab178938; Abcam), anti-MDM2 (86934; Cell Signaling), anti-MDM4 (A300-287A; Bethyl Laboratories), anti-p53 (2527S; Cell Signaling), anti-p21 (2946S; Cell Signaling), anti-Vinculin (18058; Abcam), anti-Wip1 (A300-664A; Bethyl Laboratories), anti-pSer15-p53 (9284; Cell Signaling), anti-USP7 (A300-033A; Bethyl Laboratories), and anti-Tubulin (cp06; CalBiochem).
RNA was extracted from cells with the RNeasy® kit and on-column DNA digestion (Qiagen). cDNA was prepared using M-MLV reverse transcription (ThermoFisher Scientific). TaqMan™ Gene Expression Master Mix (Applied Biosystems) was used per the manufacturer's protocol. TaqMan™ probes included RPL13A (Hs04194366_g1; ThermoFisher Scientific), CDKNIA (Hs00355782_m1; Thermo Fisher Scientific), and MDM2 (Hs01066930_m1; ThermoFisher Scientific). Data were collected in triplicate and analyzed using the ΔΔCT method.
For pharmacodynamics studies, tumor xenografts were established in six nude female mice by implanting three million TC32 cells or PDX tumor fragments into the right flank. Animals were randomized to either ATSP-7041 (n=3) or vehicle treatment (n=3). […]

Wip1 = molecular target: T1, Wip1 (Homo sapiens, UniProt O15297); assay: Western immunoblotting of Wip1 and pSer15-p53; assay type: cell-based; conditions: TC32 and CHLA258 cells, 2 d
T1 construct: Whole-cell lysates were extracted in cell lysis buffer (Cell Signaling); endogenous in cells; host or cells: TP53 wild-type Ewing sarcoma cell lines
T1 sequence (O15297 1-605): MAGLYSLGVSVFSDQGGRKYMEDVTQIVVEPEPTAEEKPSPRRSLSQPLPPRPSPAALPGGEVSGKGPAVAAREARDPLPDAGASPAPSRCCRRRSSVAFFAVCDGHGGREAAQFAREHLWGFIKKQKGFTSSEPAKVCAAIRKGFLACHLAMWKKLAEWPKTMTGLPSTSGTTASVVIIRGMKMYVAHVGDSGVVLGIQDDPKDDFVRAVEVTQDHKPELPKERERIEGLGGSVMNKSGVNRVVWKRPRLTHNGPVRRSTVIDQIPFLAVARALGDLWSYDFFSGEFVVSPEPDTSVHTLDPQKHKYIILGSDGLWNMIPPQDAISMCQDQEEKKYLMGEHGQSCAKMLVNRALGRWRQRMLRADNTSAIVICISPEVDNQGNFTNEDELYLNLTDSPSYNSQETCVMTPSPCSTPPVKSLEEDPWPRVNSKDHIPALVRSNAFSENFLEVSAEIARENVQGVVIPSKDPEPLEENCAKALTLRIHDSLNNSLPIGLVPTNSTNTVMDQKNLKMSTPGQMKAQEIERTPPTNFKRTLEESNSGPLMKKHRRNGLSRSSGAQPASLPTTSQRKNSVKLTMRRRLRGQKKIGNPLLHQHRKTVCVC
Experimental: as §1

SMILES: CC(=O)N[C@@H](CC(C)C)C(=O)N[C@H](C(=O)N[C@@H](Cc1ccccc1)C(=O)N[C@]1(C)CCCCCCC=CCCC[C@@](C)(C(=O)N[C@@H](CO)C(=O)N[C@@H](C)C(=O)N[C@@H](C)C(N)=O)NC(=O)[C@H](CC2CCC2)NC(=O)[C@H](CCC(N)=O)NC(=O)[C@H](C)NC(=O)[C@H](Cc2c[nH]c3ccccc23)NC(=O)[C@H](Cc2ccc(O)cc2)NC(=O)[C@H](CCC(=O)O)NC1=O)[C@@H](C)O [ATSP-7041, Ac-Leu17-Thr-Phe-cyclo(R8-Glu-Tyr-Trp-Ala-Gln-Cba-S5)-Ser-Ala-Ala30-NH2]
- effect of TP53 knockout on the cytotoxic effect of the compound (viability) (TP53 knockout cells): fully rescues the cytotoxic effect
- MDM2, p53, and p21 protein levels in tumor tissue [1]: increase of MDM2, p53, and p21 protein levels; also recorded: increase in MDM2, p53, and p21 protein levels
- MDM2 and p21 mRNA levels in tumor tissue ([1]; quantitative PCR): increase of MDM2 mRNA levels; also recorded: increase of p21 mRNA levels
- phosphorylation of p53 at Serine 15, combination of ATSP-7041 and GSK2830371 (Wip1): increased phospho-Serine15-p53 protein levels; also recorded: increased the phosphorylation of p53 at Serine 15; also recorded: increases the level of pSer15 on p53 more than with either molecule alone
